System: carrageenan induced paw edema
Test: Anti-inflammatory activity: acute carrageenan induced paw edema in rats
Assay type: in vivo, Wister rats
Conditions: 10 mg kg^−1 indomethacin mol equivalent; for % inhibition of edema / Mean edema thickness: intraperitoneally; for Mean edema thickness: mean ± SE; for Potency (% inhibition of edema relative to that of indomethacin reference standard): at 4 h effect
Experimental: The anti-inflammatory activity of the tested compounds was determined in vivo by the acute carrageenan induced paw edema standard method in rats. See, Naumov, et al., Bioorg. Med. Chem. Lett, 25: 2314-2320 (2015), Tiwari, et al., Org. Biomol. Chem, 12: 7238-7249 (2014), Girgis, et al., Eur. J. Med. Chem, 50: 1-8 (2012), Barsoum, et al., Eur. J. Med. Chem, 44: 2172-2177 (2009), Girgis, et al., Eur. J. Med. Chem, 44: 1972-1977 (2009), Girgis, et al., Eur. J. Med. Chem, 44: 1257-1264 (2009), Girgis, et al., Eur. J. Med. Chem, 44: 91-100 (2009), Girgis, et al., Eur. J. Med. Chem, 43: 2116-2121 (2008), Girgis, et al., Bioorg. Med. Chem, 14: 8527-8532 (2006), and Barsoum, et al., Bioorg. Med. Chem, 14: 3929-3937 (2006).
Adult Wister rats of either sex (pregnant female animals were excluded) weighing 120-150 g were divided into 18 groups of 6 animals each. […] The control group was given DMSO only. Carrageenan paw edema was induced by subcutaneous injection of freshly prepared 1% solution of carrageenan in saline (0.9%, 0.1 ml per rat) into subplantar tissue of the right hind paw of rats. The thickness of the paw was measured (in mm) after successive time intervals (1, 2,3,4 and 24 h) and compared with the initial hind paw thickness of each rat for determining the edema thickness. Data were collected, checked, revised and analyzed. Quantitative variables from normal distribution were expressed as means±SE “standard error”. The anti-inflammatory activity was expressed as percentage inhibition of edema thickness in treated animals in comparison with the control group according to eqn. (1)
Where, Vc and Vt are the mean of edema paw thickness for the control and tested compound treated animal groups, respectively.

| SMILES | % inhibition of edema (1 h) | Mean edema thickness (1 h) | % inhibition of edema (2 h) | Mean edema thickness (2 h) | % inhibition of edema (3 h) | Mean edema thickness (3 h) | % inhibition of edema (4 h) | Mean edema thickness (4 h) | % inhibition of edema (24 h) | Mean edema thickness (24 h) | Potency (% inhibition of edema relative to that of indomethacin reference standard) |
| --- | --- | --- | --- | --- | --- | --- | --- | --- | --- | --- | --- |
| COc1ccc2c(c1)c(CC(=O)O)c(C)n2C(=O)c1ccc(Cl)cc1 [Compound 2] | 53% | 1.11 ± 0.12 mm | 59% | 0.85 ± 0.09 mm | 67% | 0.59 ± 0.06 mm | 87% | 0.18 ± 0.03 mm | 86% | 0.12 ± 0.02 mm | 100 |
| CC(C)Cc1ccc(C(C)C(=O)O)cc1 (stereo not shown) [Compound 3] | 20% | 1.93 ± 0.21 mm | 60% | 0.82 ± 0.13 mm | 65% | 0.63 ± 0.09 mm | 79% | 0.29 ± 0.01 mm | 14% | 0.71 ± 0.04 mm |  |
| COc1cc(/C=C/C(=O)CC(=O)/C=C/c2ccc(O)c(OC)c2)ccc1O [Compound 4] | 12% | 2.12 ± 0.19 mm | 60% | 0.82 ± 0.11 mm | 75% | 0.45 ± 0.08 mm | 85% | 0.21 ± 0.08 mm | 36% | 0.53 ± 0.10 mm | 98 |
| COc1cc(/C=C/C(=O)CC(=O)/C=C/c2ccc(OC(=O)CNC(=O)OCc3ccccc3)c(OC)c2)ccc1OC(=O)CNC(=O)OCc1ccccc1 [Compound 5] | 64% | 0.87 ± 0.16 mm | 32% | 1.41 ± 0.19 mm | 37% | 1.13 ± 0.22 mm | 34% | 0.92 ± 0.20 mm | 0% | 0.83 ± 0.19 mm | 39 |
| COc1cc(/C=C/C(=O)CC(=O)/C=C/c2ccc(OC(=O)[C@H](C)NC(=O)OCc3ccccc3)c(OC)c2)ccc1OC(=O)[C@H](C)NC(=O)OCc1ccccc1 [Compound 6] | 56% | 1.05 ± 0.24 mm | 23% | 1.59 ± 0.21 mm | 22% | 1.40 ± 0.19 mm | 12% | 1.23 ± 0.25 mm | 0% | 0.83 ± 0.17 mm | 14 |
| COc1cc(/C=C/C(=O)CC(=O)/C=C/c2ccc(OC(=O)C(C)NC(=O)OCc3ccccc3)c(OC)c2)ccc1OC(=O)C(C)NC(=O)OCc1ccccc1 (stereo not shown) [Compound 7] | 72% | 0.67 ± 0.09 mm | 87% | 0.26 ± 0.07 mm | 97% | 0.05 ± 0.02 mm | 100% | 0.00 ± 0.00 mm | 100% | 0.00 ± 0.00 mm | 115 |
| COc1cc(/C=C/C(=O)CC(=O)/C=C/c2ccc(OC(=O)[C@@H](NC(=O)OCc3ccccc3)C(C)C)c(OC)c2)ccc1OC(=O)[C@@H](NC(=O)OCc1ccccc1)C(C)C [Compound 8] | 51% | 1.17 ± 0.26 mm | 20% | 1.65 ± 0.23 mm | 19% | 1.45 ± 0.20 mm | 12% | 1.23 ± 0.19 mm | 2% | 0.81 ± 0.11 mm | 14 |
| COc1cc(/C=C/C(=O)CC(=O)/C=C/c2ccc(OC(=O)[C@H](CC(C)C)NC(=O)OCc3ccccc3)c(OC)c2)ccc1OC(=O)[C@H](CC(C)C)NC(=O)OCc1ccccc1 [Compound 9] | 34% | 1.59 ± 0.18 mm | 10% | 1.85 ± 0.21 mm | 10% | 1.61 ± 0.18 mm | 11% | 1.25 ± 0.09 mm | 1% | 0.82 ± 0.08 mm | 13 |
| COc1cc(/C=C/C(=O)CC(=O)/C=C/c2ccc(OC(=O)[C@H](CCSC)NC(=O)OCc3ccccc3)c(OC)c2)ccc1OC(=O)[C@H](CCSC)NC(=O)OCc1ccccc1 [Compound 10] | 76% | 0.58 ± 0.15 mm | 80% | 0.41 ± 0.11 mm | 86% | 0.25 ± 0.08 mm | 88% | 0.17 ± 0.02 mm | 94% | 0.05 ± 0.01 mm | 101 |
| COc1cc(/C=C/C(=O)CC(=O)/C=C/c2ccc(OC(=O)[C@H](Cc3ccccc3)NC(=O)OCc3ccccc3)c(OC)c2)ccc1OC(=O)[C@H](Cc1ccccc1)NC(=O)OCc1ccccc1 [Compound 11] | 59% | 1.00 ± 0.07 mm | 24% | 1.56 ± 0.09 mm | 9% | 1.63 ± 0.16 mm | 5% | 1.38 ± 0.10 mm | 1% | 0.82 ± 0.13 mm | 6 |
| COc1cc(/C=C/C(=O)CC(=O)/C=C/c2ccc(OC(=O)[C@H](Cc3c[nH]c4ccccc34)NC(=O)OCc3ccccc3)c(OC)c2)ccc1OC(=O)[C@H](Cc1c[nH]c2ccccc12)NC(=O)OCc1ccccc1 [Compound 12] | 37% | 1.52 ± 0.27 mm | 28% | 1.48 ± 0.22 mm | 24% | 1.36 ± 0.26 mm | 12% | 1.23 ± 0.19 mm | 1% | 0.82 ± 0.17 mm | 14 |
| COc1cc(/C=C/C(=O)CC(=O)/C=C/c2ccc(OC(=O)CNC(=O)OCC3c4ccccc4-c4ccccc43)c(OC)c2)ccc1OC(=O)CNC(=O)OCC1c2ccccc2-c2ccccc21 [Compound 13] | 40% | 1.45 ± 0.15 mm | 62% | 0.78 ± 0.16 mm | 74% | 0.47 ± 0.11 mm | 79% | 0.29 ± 0.04 mm | 82% | 0.15 ± 0.02 mm | 91 |
| COc1cc(/C=C/C(=O)CC(=O)/C=C/c2ccc(OC(=O)[C@H](C)NC(=O)OCC3c4ccccc4-c4ccccc43)c(OC)c2)ccc1OC(=O)[C@H](C)NC(=O)OCC1c2ccccc2-c2ccccc21 [Compound 14] | 12% | 2.12 ± 0.29 mm | 23% | 1.59 ± 0.15 mm | 43% | 1.02 ± 0.17 mm | 56% | 0.62 ± 0.09 mm | 51% | 0.41 ± 0.05 mm | 64 |

— US10660967B2, “Curcumin conjugates and methods of use thereof” (priority 2016, dated 2020)
